Measured values as given in PMC8682760, “Specificity and sensitivity of an RNA targeting type III CRISPR complex coupled with a NucC endonuclease effector” (Nucleic Acids Research, 2021).
“And” between values parts separate entries of the source, which are not always exact repeats. Identical values can stand only once.

T1: NucC (Vibrio metoecus, UniProt P0DUD6)
T1 construct: Codon-optimised synthetic gene in pEV5HisTEV, N-terminal His8 tag (TEV step as for VmeCmr), E. coli C43(DE3); trimeric species used
T1 sequence (P0DUD6 1-245): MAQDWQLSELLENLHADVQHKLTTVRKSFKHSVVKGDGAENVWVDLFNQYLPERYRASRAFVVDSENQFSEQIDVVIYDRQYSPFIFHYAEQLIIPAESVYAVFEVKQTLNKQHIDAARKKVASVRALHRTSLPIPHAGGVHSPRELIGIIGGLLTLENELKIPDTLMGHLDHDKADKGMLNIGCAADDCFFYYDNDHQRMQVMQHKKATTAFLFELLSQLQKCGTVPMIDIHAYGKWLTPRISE

B1: Vibrio metoecus NucC DNA endonuclease effector (enzyme, UniProt P0DUD6 1-245, looked up)
chain: T1 sequence (P0DUD6 1-245)
notes: NucC of the Vibrio metoecus type III-B CRISPR locus; source: E. coli C43(DE3), purified (HisTrap, TEV, second HisTrap, SEC on Superdex 200); not shown: His8, N-terminal, cleaved

Key:
[1] = biological target: T1, NucC; assay: fluorogenic dsDNA (FAM/Iowa Black) cleavage, plate reader; format: biochemical; conditions: read-out: Act50
[2] = biological target: the molecule itself; assay: SEC; HiLoad 16/60 Superdex pg 200, 20 mM Tris-HCl, 250 mM NaCl, 10% (v/v) glycerol, pH 7.5; peaks at approximately 160 ml and 180 ml

Row | Molecule | EC50 [1] | stoichiometry N [2]
1 | Nc1ncnc2c1ncn2[C@@H]1O[C@@H]2COP(=O)(O)O[C@H]3[C@@H](O)[C@H](n4cnc5c(N)ncnc54)O[C@@H]3COP(=O)(O)O[C@H]3[C@@H](O)[C@H](n4cnc5c(N)ncnc54)O[C@@H]3COP(=O)(O)O[C@H]2[C@H]1O [cA3] | 0.094 ± 0.004 nM | 
2 | B1 |  | 6 and 3
